# Measured values from PubChem BioAssay AID328 (DTP/NCI, 2004).
# Where “and” joins values, the source holds several entries; their conditions need not be identical. Equal values may be shown once. Inconclusive results and toxic doses are left out.
# Test system: BDF1 mice, P388 leukemia ip, median survival T/C
# Experiment: NCI In Vivo Anticancer Drug Screen. Data for tumor model P388 Leukemia (intraperitoneal) in B6D2F1 (BDF1) mice
# Conditions: endpoint: median survival time, higher = longer survival
# Procedure, shortened: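 In tumour-bearing mice, survival after compound treatment is set against the vehicle group and given as a quotient.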
# [1] = dose: 25.0 mg/kg/injection, schedule: Q01DX005 (ip), vehicle: saline with Tween-80
# [2] = dose: 50.0 mg/kg/injection, schedule: Q01DX005 (ip), vehicle: saline with Tween-80
# [3] = dose: 100.0 mg/kg/injection, schedule: Q01DX005 (ip), vehicle: saline with Tween-80
# [4] = dose: 200.0 mg/kg/injection, schedule: Q01DX005 (ip), vehicle: saline with Tween-80
# [5] = dose: 100.0 mg/kg/injection, schedule: Q01DX001 (ip), vehicle: saline with Tween-80
# [6] = dose: 200.0 mg/kg/injection, schedule: Q01DX001 (ip), vehicle: saline with Tween-80
# [7] = dose: 400.0 mg/kg/injection, schedule: Q01DX001 (ip), vehicle: saline with Tween-80
# [8] = dose: 50.0 mg/kg/injection, schedule: Q01DX009 (ip), vehicle: saline
# [9] = dose: 100.0 mg/kg/injection, schedule: Q01DX009 (ip), vehicle: saline
# [10] = dose: 12.5 mg/kg/injection, schedule: Q04DX003 (ip), vehicle: saline with Tween-80
# [11] = dose: 25.0 mg/kg/injection, schedule: Q04DX003 (ip), vehicle: saline with Tween-80
# [12] = dose: 6.25 mg/kg/injection, schedule: Q01DX009 (ip), vehicle: saline
# [13] = dose: 12.5 mg/kg/injection, schedule: Q01DX009 (ip), vehicle: saline
# [14] = dose: 25.0 mg/kg/injection, schedule: Q01DX009 (ip), vehicle: saline with Tween-80
# [15] = dose: 50.0 mg/kg/injection, schedule: Q01DX009 (ip), vehicle: saline with Tween-80
# [16] = dose: 100.0 mg/kg/injection, schedule: Q01DX009 (ip), vehicle: saline with Tween-80
# [17] = dose: 100.0 mg/kg/injection, schedule: Q04DX003 (ip), vehicle: Klucel (hydroxypropylcellulose) (HPC)
# [18] = dose: 200.0 mg/kg/injection, schedule: Q04DX003 (ip), vehicle: Klucel (hydroxypropylcellulose) (HPC)
# [19] = dose: 400.0 mg/kg/injection, schedule: Q04DX003 (ip), vehicle: Klucel (hydroxypropylcellulose) (HPC)
# [20] = dose: 200.0 mg/kg/injection, schedule: Q01DX009 (ip), vehicle: saline with Tween-80
# [21] = dose: 400.0 mg/kg/injection, schedule: Q01DX009 (ip), vehicle: saline with Tween-80
smiles,measurement,setting,value
NC(=NCCCC(NC(=O)OCc1ccccc1)C(=O)NC(Cc1ccccc1)C(=O)OCc1ccccc1)NC(=O)OCc1ccccc1 (stereo not given),T/C,"dose: 12.5 mg/kg/injection, schedule: Q01DX005 (ip), vehicle: saline with Tween-80",92 % of control
same,T/C,[1],92 % of control
same,T/C,[2],90 % of control and 101 % of control
same,T/C,[3],97 % of control
same,T/C,[4],107 % of control
COc1ccc(NC(=O)Nc2ccccc2C(F)(F)F)cc1,T/C,[5],95 % of control
same,T/C,[6],100 % of control
same,T/C,[7],90 % of control
CC(=O)OCc1ccc(-n2c(C(F)(F)F)nc3nc(Cl)c(Cl)nc32)o1,T/C,[8],100 % of control
same,T/C,"dose: 50.0 mg/kg/injection, schedule: Q04DX003 (ip), vehicle: saline",108 % of control
same,T/C,[9],107 % of control
same,T/C,"dose: 100.0 mg/kg/injection, schedule: Q04DX003 (ip), vehicle: saline",103 % of control
same,T/C,"dose: 200.0 mg/kg/injection, schedule: Q04DX003 (ip), vehicle: saline",101 % of control
same,T/C,"dose: 400.0 mg/kg/injection, schedule: Q04DX003 (ip), vehicle: saline",100 % of control
O=[As]c1ccc(Br)cc1 (stereo not given),T/C,"dose: 0.5 mg/kg/injection, schedule: Q01DX009 (ip), vehicle: Klucel (hydroxypropylcellulose) (HPC)",104 % of control
same,T/C,"dose: 1.0 mg/kg/injection, schedule: Q01DX009 (ip), vehicle: Klucel (hydroxypropylcellulose) (HPC)",104 % of control
same,T/C,"dose: 2.0 mg/kg/injection, schedule: Q01DX009 (ip), vehicle: Klucel (hydroxypropylcellulose) (HPC)",104 % of control
CCc1noc(CC)c1CC1=C2CCC3(C)CCC(C)(C)CC3C2(C)CCC1=O (stereo not given),T/C,[5],95 % of control
same,T/C,[6],90 % of control
same,T/C,[7],90 % of control
O=[N+]([O-])/C=C/c1ccc2ccccc2n1,T/C,"dose: 1.25 mg/kg/injection, schedule: Q01DX009 (ip), vehicle: saline with Tween-80",103 % of control
same,T/C,"dose: 2.5 mg/kg/injection, schedule: Q01DX009 (ip), vehicle: saline with Tween-80",92 % of control and 94 % of control
same,T/C,"dose: 5.0 mg/kg/injection, schedule: Q01DX009 (ip), vehicle: saline with Tween-80",94 % of control and 110 % of control
same,T/C,"dose: 10.0 mg/kg/injection, schedule: Q01DX009 (ip), vehicle: saline with Tween-80",94 % of control and 115 % of control
same,T/C,[10],111 % of control
same,T/C,"dose: 20.0 mg/kg/injection, schedule: Q01DX009 (ip), vehicle: saline with Tween-80",94 % of control
same,T/C,[11],102 % of control
O=C(/C(=C\c1ccccc1)CBr)c1ccc(Br)cc1,T/C,"dose: 3.12 mg/kg/injection, schedule: Q01DX009 (ip), vehicle: saline",115 % of control
same,T/C,[12],115 % of control
same,T/C,[13],110 % of control
O=c1c2cccc3cccc(c32)c2nc3ccccc3n12,T/C,"dose: 4.0 mg/kg/injection, schedule: Q01DX009 (ip), vehicle: saline with Tween-80",100 % of control
same,T/C,"dose: 6.0 mg/kg/injection, schedule: Q01DX009 (ip), vehicle: saline with Tween-80",108 % of control
same,T/C,"dose: 6.25 mg/kg/injection, schedule: Q04DX003 (ip), vehicle: saline with Tween-80",87 % of control
same,T/C,[10],95 % of control
same,T/C,[11],112 % of control
NC(Cn1ccc(=O)c(O)c1)C(=O)O (stereo not given),T/C,[8],95 % of control
same,T/C,[9],100 % of control
same,T/C,"dose: 200.0 mg/kg/injection, schedule: Q01DX009 (ip), vehicle: saline",108 % of control
same,T/C,"dose: 400.0 mg/kg/injection, schedule: Q01DX009 (ip), vehicle: saline",122 % of control
Cc1ccc(S(=O)(=O)Cl)c(Cl)c1,T/C,[14],100 % of control
same,T/C,[15],116 % of control
same,T/C,"dose: 50.0 mg/kg/injection, schedule: Q04DX003 (ip), vehicle: saline with Tween-80",104 % of control
same,T/C,[16],112 % of control
same,T/C,"dose: 100.0 mg/kg/injection, schedule: Q04DX003 (ip), vehicle: saline with Tween-80",113 % of control
CCOC(=O)N(C)C1CCC1NC (stereo not given),T/C,"dose: 50.0 mg/kg/injection, schedule: Q01DX001 (ip), vehicle: saline",100 % of control
same,T/C,"dose: 100.0 mg/kg/injection, schedule: Q01DX001 (ip), vehicle: saline",95 % of control
same,T/C,"dose: 200.0 mg/kg/injection, schedule: Q01DX001 (ip), vehicle: saline",95 % of control
O=[N+]([O-])c1ccc(C(Br)C(Br)c2ccccc2Br)cc1 (stereo not given),T/C,[17],100 % of control
same,T/C,[18],95 % of control
same,T/C,[19],90 % of control
CCN(CC)S(=O)(=O)c1ccc(-c2cc(Cl)c3cc(S(=O)(=O)F)ccc3n2)cc1,T/C,[16],110 % of control
same,T/C,[20],90 % of control
same,T/C,[21],100 % of control
O=C(Nc1ccc([N+](=O)[O-])cc1)Nc1ccc([N+](=O)[O-])c(C(F)(F)F)c1,T/C,[16],87 % of control
same,T/C,"dose: 110.0 mg/kg/injection, schedule: Q01DX009 (ip), vehicle: Klucel (hydroxypropylcellulose) (HPC)",105 % of control and 117 % of control
same,T/C,"dose: 170.0 mg/kg/injection, schedule: Q01DX009 (ip), vehicle: Klucel (hydroxypropylcellulose) (HPC)",121 % of control
same,T/C,[20],95 % of control
same,T/C,"dose: 225.0 mg/kg/injection, schedule: Q01DX009 (ip), vehicle: Klucel (hydroxypropylcellulose) (HPC)",105 % of control
same,T/C,[21],100 % of control
Cc1ccc(NC(=S)NC(=O)c2ccco2)cc1Cl,T/C,[17],100 % of control
same,T/C,[18],120 % of control
same,T/C,[19],90 % of control
O=C1c2c(O)ccc(O)c2C(=O)c2c(NCCOCCO)ccc(NCCOCCO)c21,T/C,[1],102 % of control
same,T/C,[2],100 % of control
same,T/C,[3],118 % of control
same,T/C,[4],109 % of control
[O]=[Cr](=[O])([OH])[O][Cr](=[O])(=[O])[OH],T/C,[12],113 % of control
same,T/C,[13],100 % of control
C=C(C)C(=O)O[C@H]1[C@H]2[C@H](OC(=O)[C@H]2C)[C@H](O)[C@@H](C)[C@@H]2C=CC(=O)[C@]21C,T/C,"dose: 3.13 mg/kg/injection, schedule: Q01DX009 (ip), vehicle: saline",102 % of control
same,T/C,[12],110 % of control
same,T/C,"dose: 25.0 mg/kg/injection, schedule: Q01DX009 (ip), vehicle: saline",161 % of control
O/N=C(\c1ccccc1)c1ccccn1,T/C,"dose: 12.5 mg/kg/injection, schedule: Q01DX009 (ip), vehicle: saline with Tween-80",96 % of control
same,T/C,[14],90 % of control
same,T/C,[15],96 % of control
COc1cc(-c2ccc(Nc3ccccc3C(=O)O)c(OC)c2)ccc1N,T/C,[14],110 % of control
same,T/C,"dose: 33.0 mg/kg/injection, schedule: Q01DX009 (ip), vehicle: saline with Tween-80",109 % of control
same,T/C,"dose: 75.0 mg/kg/injection, schedule: Q01DX009 (ip), vehicle: saline with Tween-80",163 % of control
NC(Cc1c[nH]c2cc(N(CCCl)CCCl)ccc12)C(=O)O (stereo not given),T/C,"dose: 0.75 mg/kg/injection, schedule: Q01DX009 (sc), vehicle: olive oil, sesame oil, peanut oil",115 % of control
same,T/C,"dose: 1.5 mg/kg/injection, schedule: Q01DX009 (sc), vehicle: olive oil, sesame oil, peanut oil",123 % of control
same,T/C,"dose: 1.5 mg/kg/injection, schedule: Q04DX003 (sc), vehicle: olive oil, sesame oil, peanut oil",113 % of control
same,T/C,"dose: 3.0 mg/kg/injection, schedule: Q01DX009 (sc), vehicle: olive oil, sesame oil, peanut oil",100 % of control
same,T/C,"dose: 3.0 mg/kg/injection, schedule: Q04DX003 (sc), vehicle: olive oil, sesame oil, peanut oil",177 % of control
same,T/C,"dose: 4.5 mg/kg/injection, schedule: Q04DX003 (sc), vehicle: olive oil, sesame oil, peanut oil",162 % of control
same,T/C,"dose: 6.0 mg/kg/injection, schedule: Q04DX003 (sc), vehicle: olive oil, sesame oil, peanut oil",154 % of control
Nc1nc(=S)c2[nH]c(N=Nc3ccc(S(=O)(=O)Nc4ncccn4)cc3)nc2[nH]1,T/C,"dose: 50.0 mg/kg/injection, schedule: Q01DX009 (ip), vehicle: Klucel (hydroxypropylcellulose) (HPC)",118 % of control
same,T/C,"dose: 50.0 mg/kg/injection, schedule: Q04DX003 (ip), vehicle: Klucel (hydroxypropylcellulose) (HPC)",108 % of control
same,T/C,"dose: 100.0 mg/kg/injection, schedule: Q01DX009 (ip), vehicle: Klucel (hydroxypropylcellulose) (HPC)",100 % of control
same,T/C,[17],108 % of control
same,T/C,"dose: 200.0 mg/kg/injection, schedule: Q01DX009 (ip), vehicle: Klucel (hydroxypropylcellulose) (HPC)",86 % of control
same,T/C,[18],112 % of control
